Reference: patent US7754718B2 (priority 2004, dated 2010)

Assays:
wt (ayw) HBV = experiment: HBV DNA inhibition in HepG2.2.15 cells, Southern blot hybridization; type: cell-based; settings: Hepatitis B virus, HepG2.2.15, 144 h, read-out: EC50 (μM) wt (ayw), HepG2.2.15 cells, 6-day treatment, HBV DNA by Southern blot
Method: Southern blot hybridization was used to measure the effects of compounds on HBV DNA. Total DNA from cells was extracted using Dneasy Tissue kit (Qiagen Inc. Valencia, Calif.) and separated on a 0.8% agarose gel. Separated DNA was transferred to a Hybond-N+membrane (Amersham Pharmacia Biotech Inc. Piscataway, N.J.). Inhibition of viral DNA replication was assessed by comparison of the replicative HBV DNA from drug-treated versus untreated cultures using hybridization of the membrane with a [α-^32P] dCTP labeled whole HBV DNA probe followed by autoradiography. Quantitative densitometry was performed on a Molecular Dynamics Densitometer (Amersham Pharmacia Biotech Inc. Piscataway, N.J.) using ImageQuaNT image analysis software. The integrated HBV genome was used as the internal control to normalize the amount of DNA loaded. Northern blot hybridization was used to measure the effects of the compounds on HBV RNA. Total intracellular RNA was extracted from cells using Rneasy kit (Qiagen Inc. Valencia, Calif.). RNA was separated in a 1.2% formaldehyde agarose gel and transferred to a Hybond-N+ membrane (Amersham Pharmacia Biotech Inc. Piscataway, N.J.). The membrane was hybridized with the same probe mentioned above at 65° C. followed by autoradiography. GAPDH RNA level was used as an internal control to normalize the amount of RNA loaded. The decrease of HBV core protein expression was assessed by western blot. A cellular crude extract of […] cells was separated on a 12% SDS-PAGE gel and transferred onto a nitrocellulose membrane (Bio-rad Laboratories, Hercules, Calif.). Anti-HBV core antibody (DAKO Corp. Carpinteria, Calif.) and anti rabbit IgG secondary antibody (Sigma. St. Louis, Mo.) were added. Actin protein level was used as the internal control.
Hep.G2.2.15 is a hepatoblastoma cell line stably transfected with a HBV genome (ayw strain) (Sells et al., 1987, Proc Natl Acad Sci USA. 84 (4):1005-1009). […]
The effect of helioxanthin and 22 on HBV DNA in HepG2.2.15 cells, which is stably transfected with the HBV genome, was assessed. […]

wt (adr) HBV = experiment: Extracellular HBV DNA in W10 cells, real-time PCR; type: cell-based; settings: Hepatitis B virus, 144 h, 6-day treatment, HBV DNA in medium by real-time PCR
Source text: Hep.G2.2.15 is a hepatoblastoma cell line stably transfected with a HBV genome (ayw strain) (Sells et al., 1987, Proc Natl Acad Sci USA. 84 (4):1005-1009). W10, a HepG2 cell line, was transfected with an adr HBV strain (Fu et al., 2000, Antimicrob Agents Chemother 44 (12): 3402-3407; Fu et al., 1999, Biochem Pharmacol. 57 (12): 1351-1359). These cell lines were used to assess the antiviral activity of helioxanthin and 22. Various concentrations of the drugs in minimal essential medium with Earle's salts (MEME) containing 10% fetal bovine serum (FBS) were tested in 6-day-old cultures. The drugs were left in the culture medium for 3 days, then the medium was removed and fresh medium containing the same concentration of the drugs was added. At the end of another 3-day period, the culture medium and cells were harvested to measure the HBV replication level. The Lamivudine resistant cell line DM2 (Fu et al., 2000, Antimicrob Agents Chemother 44 (12): 3402-3407) is also a hepatoblastoma cell line stably transfected with HBV genome (adr strain) which contains the L526M/M550V double mutation. The culture conditions of DM2 are the same as that of HepG.2.2.15.
Quantitative real-time PCR was used to determine the extracellular HBV copy number in the medium of DM2 cells with and without drug treatment. […] Quantification of the copy number was determined by comparing the sample amount to a standard curve generated in each run. […]
W10 and DM2 cells (Fu et al., 2000, Antimicrob Agents Chemother 44 (12): 3402-3407), were used to evaluate the effects of these two compounds on wt HBV (adr strain) and its lamivudine-resistant HBV. […] After a 6-day treatment, the amount of HBV DNA, which was secreted into the medium, was evaluated using real-time PCR (FIG. 3). […] The real-time PCR method was validated by comparing the results of intracellular HBV DNA levels obtained from the Southern blot hybridization analysis to the results from real-time PCR that measured HBV DNA copies in the HepG2.2.15 medium with or without treatment of lamivudine. […]

Nc1ccn([C@@H]2CS[C@H](CO)O2)c(=O)n1 [Compound 3TC, (−)-(2R,5S)-1-[2-(hydroxymethyl)oxathiolan-5-yl]cytosine]
EC50 (wt (ayw) HBV): 0.05 ± 0.03 µM | EC50 (wt (adr) HBV): 0.02 ± 0.03 µM

COc1ccc(-c2c3c(cc4ccc5c(c24)OCO5)C(=O)NC3)cc1OC [Compound 22, 10-(3,4-Dimethoxy-phenyl)-8,9-dihydro-1,3-dioxa-8-aza-dicyclopenta[a,g]naphthalen-7-one]
EC50 (wt (ayw) HBV): ~0.08 µM | EC50 (wt (adr) HBV): 0.004 µM

O=C1OCc2c1cc1ccc3c(c1c2-c1ccc2c(c1)OCO2)OCO3 [Compound 2, 10-Benzo[1,3]dioxol-5-yl-9H-furo[3′,4′:6,7]naphtho[1,2-d][1,3]dioxol-7-one, reference compound]
EC50 (wt (ayw) HBV): ~1 µM | EC50 (wt (adr) HBV): 0.4 µM
